From patent US20010002251A1, “Intracellular sensitizers for sonodynamic therapy” (Pharmacyclics, Inc., priority 1998, published 2001)

Experiments:
[1] = tested on: murine leukemia L1210 cells; assay: Cell fragmentation after ultrasound (Coulter particle size distribution); assay type: cell-based; conditions: 6 μM sensitizer, 15 min loading at 37° C., only intracellular texaphyrin; ultrasound 1.94 MHz, 3.9 W/cm^2
Method: (§1) The effect of low-level, non-thermal ultrasound on the murine leukemia L1210 cell line in culture, measuring ultrasound-induced cytotoxicity is determined by a modification of the procedure initially described by Kessel et al., 1994. Int. J. Radiat. Biol., 66 (1994). Sonodynamic therapy with and without a texaphyrin and with and without low intensity irradiation of ultrasound. A murine 1210 cell line was used, The cytotoxicity of low-intensity ultrasound on murine leukemia L1210 cells is associated with cell fragmentation, and was detected by measuring the inhibition of the active transport of a non-metabolized amino acid (cytoleucine) and by a viability assay.
(§2) Cell Culture Systems—Murine leukemia L1210 cells were grown in Fischer's medium (GIBCO, Grand Island, N.Y.) supplemented with glutamine, 10% horse serum and gentamicin. All operations were carried out at 37° C. […]
(§3) Fragmentation and Viability Studies—Cell counts and the particle size distribution were determined with a Coulter Electronics ZM Particle Analyzer and Model 256 Channelyzer. The Channelyzer determines the mean particle volume; intact cells were detected in channels 80-110. […] Cell counts were again determined after incubation for sufficient time to allow the number of control (untreated) cells to reach 20,000/ml, approximately 5 doublings.

[2] = tested on: murine leukemia L1210 cells; assay: Amino acid (cytoleucine) transport after ultrasound in L1210 cells; assay type: cell-based; conditions: 6 μM sensitizer, 15 min loading at 37° C., only intracellular texaphyrin; ultrasound 1.94 MHz, 3.9 W/cm^2
Method: as §1, §2
Amino Acid Transport—The effect of ultrasound on the capacity of L1210 cells for concentrative accumulation of the non-metabolized amino-acid cytoleucine was assesed as a probe for damage to membrane […] systems. […] After 15 minutes, the cells were collected by centrifugation, washed with isotonic NaCl and cell radioactivity determined by liquid scintillation counting. […]

[3] = tested on: Colon 26 tumor cells; assay: Experimental kidney tumor assay of sonodynamic sensitizing activity; assay type: in vivo, mouse; conditions: 1.0 mg/kg i.v., ultrasound 24 hours later, 5 minutes, 0.5 and 1 MHz, 8 W/cm^2; sacrifice after 7 days
Method: In vivo activity for sonodynamic therapy is determined, e.g., by post-mortum histological examination of tumor tissue by hematoxylin and eosin, as described in Yumita et al., Cancer Letters 112 (1997). The antitumor effects of sonodynamic therapy are evaluated by implanting tumor cells into one kidney in a mouse (the other kidney remaining untreatd and serving as a control). Approximately 24 hours after intravenous administration of a sonodynamic sensitizer to be tested, the mouse is anesthesized and the tumorous kidney exteriorized. The position and the angle of the mouse are adjusted to facilitate ultrasound ultrasound penetration of the entire kidney, with the tumor at the focal spot. Ultrasound is delivered in continuous waves by a focused array transducer, the kidney is returned to the abdominal cavity and the abdomen is closed. After 7 days the mouse is sacrificed and the kidneys stained with hematoxylin and eosin for histologic examination. The tumor bearing and control kidneys are compared.
This procedure is a modification of a procedure initially described by Yumita et al., Cancer Letters 112 (1997).
Colon 26 tumor cells are implanted into one kidney in a male CDF mouse (the other kidney remaining untreated and serving as a control). After 14 days, 1.0 mg/kg of a texaphyrin is administered by intravenous injection. 24 Hours later, the mouse is anesthetized and the tumorous kidney exteriorized. The position and the angle of the mouse are adjusted to facilitate ultrasound ultrasound penetration of the entire kidney, with the tumor at the focal spot. Ultrasound is delivered in continuous waves by a focused array transducer. The tumor is exposed to focused ultrasound for 5 minutes in a progressive wave mode, at a frequency of 0.5 MHz for the first wave and 1 MHz for the second wave, at an intensity of 8 W/cm^2 followed by the second-harmonic superimposition of ultrasound at the same intensity, for a total exposure of 5 minutes. The kidney is returned to the abdominal cavity and the abdomen is closed. […]

[4] = tested on: murine leukemia L1210 cells; assay: Viability (growth) assay after ultrasound; assay type: cell-based; conditions: for Viability: 6 μM sensitizer, 15 min loading at 37° C., only intracellular texaphyrin, ultrasound 1.94 MHz, 3.9 W/cm^2; for potentiation of the cytotoxic effect of ultrasound: cells previously exposed to 6 μM, ultrasound at 3.9 W/cm
Method: as §1
Cell Culture Systems—Murine leukemia L1210 cells were grown in Fischer's medium (GIBCO, Grand Island, N.Y.) supplemented with glutamine, 10% horse serum and gentamicin. All operations were carried out at 37° C. Exponentially growing cells were collected by centrifugation, resuspended (5×10^6 cells/ml) in serum-free Fischer's medium buffered to pH 7.0 with 20 mM HEPES.
Sensitizers—Lutetium Texaphyrin (Lu-Tex or PCI-0123) and Gadolinium Texaphyrin (Gd-Tex or PCI-0120) were dissolved in water at a concentration of 6 μM.
Test Groups—Four groups of cells were established: Control A (no sensitizer and no ultrasound), Control B (no sensitizer, with ultrasound); 6 μM Lu-Tex with ultrasound, and 6 μM Gd-Tex with ultrasound. A small volume of the respective sensitizers were added to the Lu-Tex and Gd-Tex groups followed by a loading incubation of 15 minutes at 37° C. The cells were then suspended in fresh (serum free) medium, such that only intracellular texaphyrin remained.
Ultrasound—Exposure of cell suspensions (except Control A) to ultrasound was carried out in 2.5 cm diameter petri dishes in a bath of degassed water. A 2.54-cm-diameter transducer (Valpey-Fisher) was driven by a power amplifier (ENI 240L) with a continuous wave 1.94 MHz sinusoidal signal source (Wavetek Model 23). The acoustic field was calibrated with a Marconi PVDF membrane hydrophone in a free field condition 3.0 cm from the surface of the transducer which is also the distance from the face to the exposure dish. The acoustic intensity, expressed in terms of the spatial peak temporal average (SPTA), was 3.9 W/cm^2.
as §3, with “80-110. Smaler particles represent debris resulting from cell fragmentation.” for “80-110.”

[5] = Maximum tolerated dose study; assay type: in vivo; conditions: determined in one study; intravenous injection
Method: For example, Lutetium Texaphyrin is administered in solution containing 2 mg/ml optionally in 5% mannitol, USP. Dosages of about 1.0 or 2.0 mg/kg to about 4.0 or 5.0 mg/kg, preferably 3.0 mg/kg may be employed, up to a maximum tolerated dose that was determined in one study to be 5.2 mg/kg. The texaphyrin is administered by intravenous injection, followed by a waiting period of from as little as several minutes or about 3 hours to as long as about 72 or 96 hours (depending on the treatment being effected) to facilitate intracellular uptake and clearance from the plasma and extracellular matrix prior to the administration of the sonodynamic agent. The co-administration of a sedative (e.g., benzodiazapenes) and narcotic analgesic are sometimes recommended prior to topical (as opposed to intravascular) light treatment. Topical administration. of Emla cream (lidocaine, 2.5% and prilocaine, 2.5%) under an occlusive dressing and other intradermal, subcutaneous and topical anesthetics may also be employed as necessary to reduce discomfort. Similar patient comfort considerations may apply in sonodynamic therapy, as will be apparent to the treating physician. Subsequent treatments can be provided after suitable time interval, currently approximately 21 days. […]

| Compound | Fragmentation [1] | Amount of Cytoleucene Transported [2] | comparison of tumor-bearing and control kidneys (histologic examination) [3] | Viability [4] | potentiation of the cytotoxic effect of ultrasound [4] | maximum tolerated dose [5] [mg/kg] |
| --- | --- | --- | --- | --- | --- | --- |
| CC(=O)[O-].CC(=O)[O-].CCc1c(CC)c2cc3nc(cnc4cc(OCCOCCOCCOC)c(OCCOCCOCCOC)cc4ncc4nc(cc1[n-]2)C(CCCO)=C4C)C(C)=C3CCCO.O.[Gd+3] [Gd-Tex, Gadolinium Texaphyrin] | 64 ± 4 | 3.2 ± 0.4 | substantially the same | 42 ± 5 | substantial potentiation | – |
| CC(=O)[O-].CC(=O)[O-].CCc1c(CC)c2cc3nc(cnc4cc(OCCOCCOCCOC)c(OCCOCCOCCOC)cc4ncc4nc(cc1[n-]2)C(CCCO)=C4C)C(C)=C3CCCO.O.[Lu+3] [Lu-Tex, Lutetium Texaphyrin] | 73 ± 6 | 2.8 ± 0.3 | substantially the same | 24 ± 3 | substantial potentiation | 5.2 |
| yttrium texaphyrin | – | – | substantially the same | – | – | – |
